The record followed here is ChEMBL document CHEMBL5550110, “An insight into the mechanistic role of (-)-Ampelopsin F from Vatica chinensis L. in inducing insulin secretion in pancreatic beta cells” (Bioorg Med Chem, 2024).

The test system of series [1] is Beta-TC6. In words: Induction of mitochondrial membrane hyperpolarization in mouse Beta-TC6 cells at 0.9 uM after 24 hrs by JC-1 staining based fluorescence microscopy analysis. Format: cell-based.
Series [2] concerns Beta-TC6. In words: Induction of insulin secretion in mouse Beta-TC6 cells assessed as fold increase at 0.1 uM incubated for 24 hrs by ELISA relative to control. Format: functional.
Series [3] relates to Beta-TC6. The series can be described thus: Induction of calcium level in mouse Beta-TC6 cells assessed as fold increase at 0.1 uM incubated for 30 mins by Fura-2 AM staining based fluorescence microscopy analysis relative to control. Format: functional. Particulars: 0.5 h.
Series [4] is described as follows: Induction of glucokinase expression in mouse Beta-TC6 cells assessed as fold increase at 0.1 uM incubated for 24 hrs by Western blotting analysis relative to control. Format: functional.
For series [5], the system named is Beta-TC6. In words: Induction of mitochondrial membrane hyperpolarization in mouse Beta-TC6 cells at 0.1 uM after 24 hrs by JC-1 staining based fluorescence microscopy analysis. Format: cell-based.
Series [6] concerns the target Dipeptidyl peptidase 4 (Mus musculus) (UniProt P28843). In words: Inhibition of DPP4 in mouse Beta-TC6 cells assessed as reduction in AMC production at 50 uM measured every min by fluorescence plate reader assay relative to control. In kind it is cell-based.
For series [7], the system named is Beta-TC6. In words: Induction of calcium level in mouse Beta-TC6 cells assessed as fold increase at 50 uM incubated for 30 mins by Fura-2 AM staining based fluorescence microscopy analysis relative to control. In kind it is functional. Particulars: 0.5 h.
The subject of series [8] is Beta-TC6. The series can be described thus: Cytotoxicity against mouse Beta-TC6 cells assessed as reduction in cell viability at 50 uM incubated for 24 hrs by MTT assay. Format: toxicity, cell-based. Particulars: beta-tc6, 24 h.
In series [9] the target is Dipeptidyl peptidase 4 (Mus musculus) (UniProt P28843). In words: Inhibition of DPP4 in mouse Beta-TC6 cells assessed as reduction in AMC production at 50 uM measured every min by fluorescence plate reader assay relative to positive control. Format: cell-based.
Series [10] in a line: Induction of glucokinase expression in mouse Beta-TC6 cells assessed as fold increase at 50 uM incubated for 24 hrs by Western blotting analysis relative to control. Format: functional.
Series [11] has as its system Beta-TC6. The series can be described thus: Induction of mitochondrial membrane hyperpolarization in mouse Beta-TC6 cells at 50 uM after 24 hrs by JC-1 staining based fluorescence microscopy analysis. Format: cell-based.
In series [12] the test system is Beta-TC6. The series can be described thus: Induction of insulin secretion in mouse Beta-TC6 cells assessed as fold increase at 50 uM incubated for 24 hrs by ELISA relative to control. In kind it is functional. (In general: ELISA stands for enzyme-linked immunosorbent assay.)
The nature of series [13]: Induction of GLUT2 expression in mouse Beta-TC6 cells assessed as fold increase at 50 uM incubated for 24 hrs by Western blotting analysis relative to control. In kind it is functional.

The source made the active and inactive calls. The calls are words filed in the database; no cut-off is given here.

Sequence of Dipeptidyl peptidase 4 (Mus musculus) (P28843 whole entry, looked up): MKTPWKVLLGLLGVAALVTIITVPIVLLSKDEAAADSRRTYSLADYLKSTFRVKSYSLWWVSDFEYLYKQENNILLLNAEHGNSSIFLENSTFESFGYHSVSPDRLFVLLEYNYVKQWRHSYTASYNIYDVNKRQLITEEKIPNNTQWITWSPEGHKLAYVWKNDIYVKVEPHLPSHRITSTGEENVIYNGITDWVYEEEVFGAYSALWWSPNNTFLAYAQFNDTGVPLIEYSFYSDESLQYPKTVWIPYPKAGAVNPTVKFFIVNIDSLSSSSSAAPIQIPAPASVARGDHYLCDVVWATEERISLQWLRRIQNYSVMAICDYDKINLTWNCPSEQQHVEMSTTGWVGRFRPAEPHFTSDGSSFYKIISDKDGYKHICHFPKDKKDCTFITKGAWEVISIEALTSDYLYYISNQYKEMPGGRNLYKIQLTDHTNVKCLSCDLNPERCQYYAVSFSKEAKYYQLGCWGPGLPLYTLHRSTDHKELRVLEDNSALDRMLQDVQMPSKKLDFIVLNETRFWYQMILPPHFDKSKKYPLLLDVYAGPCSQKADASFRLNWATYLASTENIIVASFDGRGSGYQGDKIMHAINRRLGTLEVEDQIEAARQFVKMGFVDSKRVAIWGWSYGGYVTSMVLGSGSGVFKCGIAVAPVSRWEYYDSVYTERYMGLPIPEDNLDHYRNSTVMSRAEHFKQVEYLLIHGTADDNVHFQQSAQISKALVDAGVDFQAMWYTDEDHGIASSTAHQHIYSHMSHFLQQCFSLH

Take `CC(C)[C@@H]1NC(=O)[C@H](C)OC(=O)[C@@H](C(C)C)NC(=O)[C@@H](C(C)C)OC(=O)[C@H](C(C)C)NC(=O)[C@H](C)OC(=O)[C@@H](C(C)C)NC(=O)[C@@H](C(C)C)OC(=O)[C@H](C(C)C)NC(=O)[C@H](C)OC(=O)[C@@H](C(C)C)NC(=O)[C@@H](C(C)C)OC1=O`: in the series with Beta-TC6 [1], the result was inactive.

`COc1ccc(Cl)cc1C(=O)NCCc1ccc(S(=O)(=O)NC(=O)NC2CCCCC2)cc1` [GLYBURIDE]: the “fold change (FC)” value in the series on Beta-TC6 [2] came to 4; in the series with Beta-TC6 [3] it was 2; in series [4] it was 2. The result in the series with Beta-TC6 [5] was Active.

Usually inhibition stands for the percentage by which the read-out fell short of the control. In the case of `Oc1ccc([C@@H]2c3c(O)cc(O)cc3[C@H]3c4c(O)cc(O)cc4[C@H]2[C@@H]3c2ccc(O)cc2)cc1`, the inhibition turned out to be 63% in series [6] and 85% in [9]. Besides, the “fold change (FC)” value in the series on Beta-TC6 [7] turned out to be 2; in [10], 2.5; in the series on Beta-TC6 [12], 3.5; in series [13], 1.5. In addition, the Activity with Beta-TC6 [8] was less than 15%. Also, the outcome in the series with Beta-TC6 [11] was Active.
